US20240392343A1, “METHODS TO SCREEN YEAST TO IDENTIFY XENOBIOTICS THAT TARGET PESTS, PATHOGENS AND PARASITES” (The Governing Council of the University of Toronto, priority 2023, published 2024)
“Also recorded” adds a separate entry of the source.

Tests used:
[1] = test system: cytochrome P450s in C. elegans and diverse PPN species; experiment: HPLC of cyproside-3 parent and metabolites in whole worms with pan-P450 inhibitor 1-ABT; type: in vivo
Excerpt: (§1) FIGS. A-A′″ show HPLC chromatograms with cyproside-3 (abbreviated cypros-3) unmodified parent molecule (P) and metabolite (M1-M5) peaks indicated. MP1 is a cyproside-3 metabolite uniquely produced in P. penetrans. Y-axis indicates absorbance wavelength in nm. FIGS. B-B′″ show quantification of unmodified cyproside-3 parent (P) and metabolite peaks from A-A′″. Error bars indicate SEM, p-values calculated using unpaired t-test. FIGS. C-C′″ show the proportion mobile worms relative to DMSO solvent controls after 72-hour exposure to 20 μM cyproside-3 (C. elegans) or 60 μM cyproside-3 (all other species). P-values calculated using unpaired t-test.
(§2) Using the pan-P450 inhibitor (1-ABT), cyproside-3's metabolism was inhibited in vivo (FIGS. 11A and 11B).

[2] = test system: C. elegans and diverse PPN species; experiment: Worm mobility after cyproside-3 exposure with 1-ABT; type: in vivo; conditions: 72-hour exposure to 20 μM cyproside-3 (C. elegans) or 60 μM cyproside-3 (all other species)
Excerpt: as §1, §2

[3] = biological target: T1, C. elegans P450 CYP-35D1 (Caenorhabditis elegans, UniProt O45364); experiment: CYPce assay: viability of yeast expressing CYP-35D1 vs empty vector; type: cell-based; conditions: yeast expressing CYP-35D1 vs empty vector yeast; dose-response
T1 construct: expressed in transfected cells; host or cells: Saccharomyces cerevisiae (yeast), expression vector vs empty vector
T1 sequence (O45364 1-499): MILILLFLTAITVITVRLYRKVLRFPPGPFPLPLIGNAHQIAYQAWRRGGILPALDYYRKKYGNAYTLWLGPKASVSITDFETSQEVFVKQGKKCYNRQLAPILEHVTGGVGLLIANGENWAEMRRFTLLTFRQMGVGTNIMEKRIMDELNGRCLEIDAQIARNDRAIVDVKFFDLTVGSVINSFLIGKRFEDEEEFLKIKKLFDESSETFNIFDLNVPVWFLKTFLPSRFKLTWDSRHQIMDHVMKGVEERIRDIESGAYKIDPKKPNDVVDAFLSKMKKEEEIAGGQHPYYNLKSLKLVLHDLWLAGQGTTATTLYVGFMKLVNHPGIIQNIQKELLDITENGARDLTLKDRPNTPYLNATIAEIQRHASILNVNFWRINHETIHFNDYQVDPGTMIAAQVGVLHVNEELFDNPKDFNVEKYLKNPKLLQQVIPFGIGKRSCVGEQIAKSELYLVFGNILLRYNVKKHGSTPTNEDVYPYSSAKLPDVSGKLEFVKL
Excerpt: (§3) In this condition cyproside-3 is not metabolized into a lethal product and yeast are viable. […] CYP-35D1 is capable of metabolizing cyproside-3 into an active metabolite which leads to reduced viability in the yeast. […] Viability relative to untreated controls is indicated by the gray coded scale. […] AUC is the area under the curve, error bars indicate SEM. The p-values were obtained from unpaired two-tailed Student's t-tests comparing the means of the empty vector control and CYP-35D1 expressing yeast. […] Peaks corresponding to the unmodified cyproside-3 and the three cyproside-3 metabolites visible using our HPLC-DAD system (M1, M2 and M3) are indicated.
CYPce (pronounced sip-sea) is an acronym for the heterologous expression of CYPs in S. cerevisiae for the purpose of identifying P450s that can bioactivate small molecules into lethal products that may or may not be reactive. […]
(§4) With that single strain, a library of small molecules are screened for those that can be bioconverted by the heterologously-expressed enzyme into a product that kills the cells expressing the enzyme. As set out herein, the growth of cells was measured, for example, by a variety of means, including optical density.

[4] = test system: Meloidogyne incognita; experiment: Soil-based tomato root infection assay; type: in vivo; conditions: 6 weeks of infection in soil drenched with chemical
Excerpt: Cyprosides 3-2, 3-3, and 3-4 are structural analogs of cyproside-3. […] All error bars represent SEM, p-values calculated using an unpaired t test vs. solvent controls. […] Cyprosides 3-7, 3-12, 3-25, and 3-26 are structural analogs of cyproside-3. The other data points represent negative (water, DMSO) and positive (fluopyram, tioxazafen) controls. All error bars represent SEM.
There were no significant adverse effects on plant growth by the cyproside-3s as evident by the resulting root mass (FIG. 12C).

[5] = biological target: T2, CYP-35D1 (Caenorhabditis elegans, UniProt O45364); experiment: HPLC / LCMS analysis of cyproside-3 metabolites, CYP-35D1; type: in vitro ADME, C. elegans; conditions: lysates of yeast after treatment with 100 μM cyproside-3
T2 construct: expressed in transfected cells; host or cells: Saccharomyces cerevisiae (yeast), expression vector vs empty vector
T2 sequence (O45364 1-499): T1 sequence (O45364 1-499)
Excerpt: as §3
Cytochrome P450 enzymes (CYPs) catalyze the S-oxidation of cyproside-3 which produces an electrophilic sulfoxide metabolite. This sulfoxide metabolite reacts with glutathione (GSH) and is further processed to γ-Glutamyl-Cysteine (γ-Glu-Cys), Cysteinylglycine (Cys-Gly) and cysteine (Cys) conjugates.

[6] = test system: Mi-CYP4731A3; experiment: HPLC analysis of lysates of yeast expressing CYP4731A3; type: in vitro ADME, Meloidogyne incognita; conditions: lysates of yeast treated with 100 μM compound
Excerpt: (§5) Each data point corresponds to an individual yeast strain expressing a unique M. incognita CYP enzyme. The data point above the dotted line has a p-value <0.01, and corresponds to the strain expressing M. incognita CYP4731A3. […] Unmodified sel-A and metabolites M2 and M3 are indicated. […] AUC is the area under the curve for M2 and M3 combined, calculated at 260 nm. Error bars are SEM. The p-value was obtained from an unpaired one-tailed Student's t-test comparing the means of empty vector control and CYP4731A3 expressing yeast. M1 was not detectable.
Each data point corresponds to an individual yeast strain expressing a unique M. incognita P450 enzyme. The data point above the dotted line has a p-value <0.01 and corresponds to the strain expressing M. incognita CYP4731A3. […] Viability relative to untreated controls is indicated by the grey-coded scale. […] Peaks corresponding to the unmodified cyproside-3 and the three cyproside-3 metabolites visible using the HPLC-DAD system (M1, M2 and M3) are indicated. […] AUC is the area under the curve, error bars indicate SEM. The p-values were obtained from unpaired two-tailed Student's t-tests comparing the means of the empty vector control and CYP4731A3 expressing yeast. […]

[7] = test system: diverse nematode species (non-parasitic and plant parasitic species); experiment: Dose-response analysis on diverse nematode species (FIG. 10); type: in vivo; conditions: dose-response relative to solvent control
Excerpt: (§6) Dose-response analysis of cyproside-3 and tioxazafen on diverse nematode species and off-target systems including human cells (HEK293 and HepG2), fungi (Saccharomyces cerevisiae and Candida albicans) and plant beneficial rhizobacteria (Pseudomonas simiae WCS417 and Pseudomonas defensor WCS374). The activity of the compound relative to the solvent control in each assay is indicated by the gray coded scale.

[8] = test system: M. incognita CYP4731A3; experiment: CYPce assay: yeast-based M. incognita CYP expression screen and dose-response; type: cell-based, Meloidogyne incognita; conditions: 19 M. incognita CYP-expressing yeast strains vs empty vector, 50 μM in screen
Excerpt: as §5
Each data point corresponds to an individual yeast strain expressing a unique M. incognita P450 enzyme. The data point above the dotted line has a p-value <0.01 and corresponds to the strain expressing M. incognita CYP4731A3. […] Viability relative to untreated controls is indicated by the grey-coded scale. […] Peaks corresponding to the unmodified cyproside-3 and the three cyproside-3 metabolites visible using the HPLC-DAD system (M1, M2 and M3) are indicated. […] AUC is the area under the curve, error bars indicate SEM. […]
With that single strain, a library of small molecules are screened for those that can be bioconverted by the heterologously-expressed enzyme into a product that kills the cells expressing the enzyme. As set out herein, the growth of cells was measured, for example, by a variety of means, including optical density. […]

[9] = test system: human cells (HEK293 and HepG2), fungi (Saccharomyces cerevisiae and Candida albicans) and plant beneficial rhizobacteria (Pseudomonas simiae WCS417 and …); experiment: Dose-response analysis on off-target systems (FIG. 10); type: cell-based; conditions: HEK293, HepG2, S. cerevisiae, C. albicans, P. simiae WCS417, P. defensor WCS374; relative to solvent control
Excerpt: as §6

[10] = test system: C. elegans P450 CYP-35C1; experiment: CYPce assay: viability of yeast expressing CYP-35C1 vs empty vector; type: cell-based; conditions: yeast expressing CYP-35C1 vs empty vector yeast; dose-response
Excerpt: (§7) Viability relative to untreated controls is indicated by the gray coded scale. […] The p-values were obtained from unpaired two-tailed Student's t-tests comparing the means of the empty vector control and CYP-35C1 expressing yeast.
CYPce (pronounced sip-sea) is an acronym for the heterologous expression of CYPs in S. cerevisiae for the purpose of identifying P450s that can bioactivate small molecules into lethal products that may or may not be reactive. The CYPce assay relies on culturing a single strain of yeast (S. cerevisiae) (or any convenient cell type in other embodiments) that expresses a single P450 enzyme (or any other small molecule modifying enzyme in other embodiments) from a single targeted organism (FIG. 2).
as §4

[11] = test system: CYP-35C1; type: in vitro ADME; conditions: C. elegans
Excerpt: as §7
FIGS. 6A-C show mass spectrometry (MS) data for metabolite M1-M3 HPLC fractions and untreated control fractions, as well as MS/MS fragmentation data for selected masses. Structures of γ-glutamylcysteine (γ-Glu-Cys) (A), glutathione (B), and cysteine (C) conjugates of a selectivin-A (sel-A) electrophilic sulfoxide metabolite are shown, along with fragmentations that produce masses found in the MS/MS plots. […] S-oxidation produces an electrophilic sulfoxide metabolite that reacts with glutathione (GSH) either spontaneously or via glutathione-S-transferase (GST), and is likely further processed to 7-Glu-Cys and cysteine conjugates via phytochelatin synthase (PCS) and 7-glutamyl transferase (GGT), respectively. Cytochrome p450 enzymes (CYPs) likely mediate S-oxidation.

Row | SMILES | effect of 1-ABT on cyproside-3's metabolism in vivo [1] | effect of 1-ABT on cyproside-3's effects on the worms (mobility) [2] | yeast killing dependent on CYP-35D1 [3] | control of root infection by M. incognita (eggs per milligram of tomato root tissue) [4] | metabolism by CYP-35D1 (HPLC) [5] | metabolism by Mi-CYP4731A3 in yeast (HPLC) [6] | phylogenetic activity profile: activity on nematode species [7] | yeast killing dependent on Mi-CYP4731A3 [8] | activity against non-targeted cells and organisms [9] | yeast killing dependent on CYP-35C1 [10] | nature of product of metabolism by CYP-35C1 (LCMS and NMR) [11] | metabolism by CYP-35C1 in yeast (HPLC) ([11]; 100 μM)
1 | Nn1nnc2ccccc21 [Cyproside 1-ABT, reference compound] | inhibited | inhibited cyproside-3's effects on the worms | – | – | – | – | – | – | – | – | – | –
2 | CCSc1nnc(-c2ccc(Cl)cc2)o1 [cyproside-3, 2-(4-chlorophenyl)-5-(ethylthio)-1,3,4-oxadiazole] | – | – | killed yeast in a manner dependent on C. elegans P450 CYP-35D1 | demonstrated activity | metabolized by CYP-35D1 into a reactive product | metabolized by Mi-CYP4731A3 in yeast | high selectivity for all nematode species tested; also recorded: broad-spectrum activity in plant-parasitic nematodes | can kill yeast in a Mi-CYP4731A3-dependent manner | little-to-no activity against non-targeted cells and organisms | – | – | –
3 | Clc1ccc(-c2cn3ccsc3n2)cc1 [selectivin-A, 6-(4-chlorophenyl)imidazo[2,1-b]thiazole] | – | – | – | – | – | metabolized by Mi-CYP4731A3 in yeast | – | kills yeast in a Mi-CYP4731A3-dependent manner | – | kills yeast in a manner dependent on the C. elegans P450 CYP-35C1 | metabolized by CYP-35C1 into a reactive lethal product | metabolized by CYP-35C1 in yeast
